Measured values published in patent publication US7351857B2, “Methods of using substituted tetralins and indanes” (Janssen Pharmaceutica N.V., priority 2002, dated 2008).

Legend:
PPARδ = target: T1, PPARδ (Homo sapiens, UniProt Q03181); assay: Transfection assay for PPARδ receptors (PPAR-Gal4 / Gal4-luciferase reporter in HEK293 cells); format: cell-based; conditions: unbracketed values, PPARδ standard FI = 36.1
T1 sequence (Q03181 171-441 limits assumed): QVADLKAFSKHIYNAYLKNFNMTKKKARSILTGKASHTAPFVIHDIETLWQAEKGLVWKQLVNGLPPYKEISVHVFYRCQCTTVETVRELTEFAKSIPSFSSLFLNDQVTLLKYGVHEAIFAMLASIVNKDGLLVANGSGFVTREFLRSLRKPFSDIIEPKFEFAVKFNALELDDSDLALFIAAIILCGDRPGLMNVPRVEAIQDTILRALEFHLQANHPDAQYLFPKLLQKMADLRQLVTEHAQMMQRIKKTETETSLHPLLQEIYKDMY
Protocol: HEK293 cells were grown in DMEM/F-12 Media supplemented with 10% FBS and glutamine (GIBCOBRL). The cells were co-transfected with DNA for PPAR-Gal4 receptor and Gal4-Luciferase Reporter using the DMRIE-C Reagent. On the following day, the DNA-containing medium were replaced with 5% Charcoal treated FBS growth medium. After six hours, cells were seeded in 96 well plate and incubated at 37° C. in CO2 incubator overnight. Cells were challenged by test compounds and incubated for 24 hours at 37° C. in 5% CO2 incubator. Luciferase activity was assayed using the Steady-Glo Luciferase Assay Kit from Promega. DMRIE-C Reagent was purchased from GIBCO Cat. No. 10459-014. OPTI-MEM I Reduced Serum Medium was purchased from GIBCO Cat. No. 31985. Steady-Glo Luciferase Assay Kit was obtained from Promega Part# E254B.

PPARγ = target: T2, PPARγ (Homo sapiens, UniProt P37231); assay: aP2 assay for PPAR gamma agonists (bDNA aP2 mRNA in preadipocytes); format: cell-based; conditions: unbracketed values; PPARγ standard FI = 70.3
T2 construct: Following the challenge of the preadipocytes, cells may be lysed with lysis buffer; endogenous in cells; host or cells: preadipocytes
T2 sequence (P37231 1-505): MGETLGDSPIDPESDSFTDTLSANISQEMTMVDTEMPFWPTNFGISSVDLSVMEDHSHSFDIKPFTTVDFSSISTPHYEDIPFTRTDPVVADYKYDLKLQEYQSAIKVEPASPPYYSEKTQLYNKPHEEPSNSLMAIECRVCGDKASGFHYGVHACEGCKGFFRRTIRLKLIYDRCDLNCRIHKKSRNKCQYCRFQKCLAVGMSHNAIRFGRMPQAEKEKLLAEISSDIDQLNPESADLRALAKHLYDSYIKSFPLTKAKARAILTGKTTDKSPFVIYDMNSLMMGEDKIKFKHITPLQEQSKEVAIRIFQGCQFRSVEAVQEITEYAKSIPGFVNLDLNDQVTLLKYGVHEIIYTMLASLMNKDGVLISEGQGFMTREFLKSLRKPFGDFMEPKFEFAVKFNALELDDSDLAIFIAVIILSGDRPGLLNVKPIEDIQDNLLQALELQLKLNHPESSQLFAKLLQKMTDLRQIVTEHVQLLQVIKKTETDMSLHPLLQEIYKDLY
Protocol: The procedure is described in detail in Burris et al., Molecular Endocrinology, 1999, 13:410, which is hereby incorporated by reference in its entirety, and aP2 assay results of agonist intrinsic activity may be presented as fold increase over vehicle in induction of aP2 mRNA production.
Twenty-four hours after the initial seeding of the 96-well plates by hand (around 20,000/well), the differentiation assay may be initiated. Medium may be removed and replaced with 150 μl of differentiation medium containing vehicle (DMSO) or test compounds. Cells may be returned to incubator for 24 hours culture. At the termination of the challenge, medium may be removed and 100 ul of lysis buffer may be added to initiate the bDNA aP2 mRNA assay. The branched DNA assay may be performed according to the manufacturer's protocol (Bayer Diagnostics; Emeryville, Calif.). Result may be expressed as the fold increase of aP2 mRNA production activated over vehicle controls. EC50's and Emax may be determined by non-linear regression with a sigmoidal fit curve.
Following the challenge of the preadipocytes, cells may be lysed with lysis buffer (Bayer Diagnostics) containing the aP2 oligonucleotides. After a 15 minute incubation at 53° C. or 30 minutes at 37° C. incubator, 70 ul of the lysis buffer from each well may be added to a corresponding capture well (preincubated with 70 ul of blocking buffer (Bayer Diagnostics)). The capture plate may be incubated overnight at 53° C. in a plate incubator (Bayer Diagnostics). After this incubation, the bDNA and labeled probes may be annealed as directed by the manufacturer. Following a 30-minute incubation with the luminescent alkaline phosphatase substrate, dioxitane, the luminescence may be quantitated in a Dynex MLX microtiter plate luminometer. Oligonucleotide probes designed to anneal to the aP2 mRNA and function in the bDNA mRNA detection system are designed with ProbeDesigner software (Bayer Diagnostics). This software package analyzes a target sequence of interest with a series of algorithms in order to determine which regions of the sequence can perform as locations for capture, label, or spacer probe annealing. The sequences of the oligonucleotides are as follows: […]

ob/ob mice = assay: 11 day oral dosing in female ob/ob mice: serum TG, glucose, insulin; format: in vivo; conditions: 1.0 mpk, oral once daily 11 days, % change vs vehicle
Protocol: (Female ob/ob mice (C57 BU6J-Lep^ob, Jackson Labs, Bar Harbor, Me.), 7 weeks of age, were housed two per cage in solid-bottomed shoe box cages. Room temperature was maintained at 68-72° F. and humidity at 50-65%. Room lighting was on a 12-hour light/12-hour dark cycle. Mice were fed a certified NIH Rat and Mouse diet #5K50 (P M I Nutrition Int'l, St. Louis, Mo., via W. F. Fisher and Son, Inc., Bound Brook, N.J.). Food and water were supplied ad libitum.
The compound was prepared as suspensions in 0.5% hydroxypropyl-methylcellulose (Dow Chemical, Midland, Mich.). The dosing volume was 10 mL/kg of body weight. Female ob/ob diabetic mice (8/group) were orally gavaged once daily for 11 days with either 0.5% methylcellulose in dH2O (vehicle) or PPAR agonist at 0.003, 0.01, 0.03, 0.1, 0.3, 1 mg/kg/day. Body weight was measured in the mornings on Day 1, prior to dosing, and on Day 12 before bleeding. 18 hours after the final dose for each group, the mice were anesthetized with CO2/O2 (70%:30%) and bled by retro-orbital sinus puncture into micro-tubes containing clog activator and then put in ice. The serum samples were prepared by centrifugation. Serum glucose and triglycerides were determined by using COBAS Mira Plus blood chemistry analyzer (Roche Diagnostics, N.J.). Serum insulin and free fatty acids were measured by using ALPCO insulin ELISA kit and Wako NEFA kit, respectively. […]

| Structure (SMILES) | PPARδ FI (fold induction) (PPARδ) | PPARγ FI (fold induction) (PPARγ) | Δ Plasma Glucose (ob/ob mice) [%] | Δ Plasma Insulin (ob/ob mice) [%] |
| --- | --- | --- | --- | --- |
| CCN(C(=O)Nc1ccc(OC(F)(F)F)cc1)C1Cc2ccc(SC(C)(C)C(=O)O)cc2C1 (centres unmarked) [Example 2, 2-{2-[1-Ethyl-3-(4-trifluoromethoxyphenyl)ureido]indan-5-ylsulfanyl}-2-methylpropionic acid] | 4.2 | 0.24 |  |  |
| CCCCCN(C(=O)Nc1ccc(SC(F)(F)F)cc1)C1Cc2ccc(SC(C)(C)C(=O)O)cc2C1 (centres unmarked) [Example 5, 2-Methyl-2-{2-[1-pentyl-3-(4-trifluoromethylsulfanylphenyl)ureido]indan-5-ylsulfanyl}propionic acid] | 2.5 | 4.0 |  |  |
| CCN(C(=O)Nc1ccc(C(C)C)cc1)C1Cc2ccc(SC(C)(C)C(=O)O)cc2C1 (centres unmarked) [Example 6, 2-{2-[1-Ethyl-3-(4-isopropylphenyl)ureido]indan-5-ylsulfanyl}-2-methylpropionic acid] | 3.6 | 1.9 |  |  |
| CCCCCN(C(=O)Nc1ccc(OC(F)(F)F)cc1)C1Cc2ccc(SC(C)(C)C(=O)O)cc2C1 (centres unmarked) [Example 8, 2-Methyl-2-{2-[1-pentyl-3-(4-trifluoromethoxyphenyl)ureido]indan-5-ylsulfanyl}-2-methylpropionic acid] | 5.9 | 1.9 |  |  |
| CCCCCN(C(=O)Nc1ccc(N(C)C)cc1)C1Cc2ccc(SC(C)(C)C(=O)O)cc2C1 (centres unmarked) [Example 9, 2-{2-[3-(4-Dimethylaminophenyl)-1-pentylureido]indan-5-ylsulfanyl}-2-methylpropionic acid] | 1.0 | 2.9 |  |  |
| CCCCCCN(C(=O)Nc1ccc(OC(F)(F)F)cc1)C1Cc2ccc(SC(C)(C)C(=O)O)cc2C1 (centres unmarked) [Example 14, 2-Methyl-2-{2-[1-hexyl-3-(4-trifluoromethoxyphenyl)ureido]indan-5-ylsulfanyl}propionic acid] | 1.3 | 0.3 |  |  |
| CCN(C(=O)Nc1ccc(OC(F)(F)F)cc1)C1CCc2cc(SC(C)(C)C(=O)O)c(F)cc2C1 (centres unmarked) [Example 50, 2-{6-[1-Ethyl-3-(4-trifluoromethoxyphenyl)ureido]-3-fluoro-5,6,7,8-tetrahydronaphthalen-2-ylsulfanyl}-2-methylpropionic acid] |  |  | −74 | −93 |
